In patent US20240307348A1, “COMPOSITION FOR PREVENTING AND TREATING MUSCLE DISEASE, IMPROVING MUSCLE FUNCTION OR ENHANCING MOTOR PERFORMANCE COMPRISING HYDRANGENOL OR HYDRANGEA EXTRACT AS ACTIVE INGREDIENT” (COSMAXBIO CO., LTD., priority 2018, published 2024):

Tests used:
[1] = system: C2C12 cells; test: Change in muscle-related gene expression (qRT-PCR) upon treatment with hydrangenol or Hydrangea extract; assay type: cell-based; conditions: C2C12 cells differentiated 5 days, 1 hour or 24 hours
Method: Each sample obtained in Examples 1 and 2 was analyzed in regards to its effects on the change in gene expression involved in the gain of muscle mass and the mitochondrial biogenesis and electron transport chain (ETC). For this experiment, C2C12 cells were differentiated for 5 days and then treated with the sample of Example 1 (25 μg/ml) or Example 2 (2.5 μg/ml) for 1 hour or 24 hours, respectively. Then, Trizol was used to extract RNA from the cell, and cDNA was synthesized from the RNA (cDNA synthesis kit, Bio-Rad). Finally, a realtime PCR (qRT-PCR) was performed (Viia7, […] Biosystems) using the oligomers of Table 1 as primers.
In the experimental example, the extract of Hydrangea serrata is indicated as S; the extract of Hydrangea macrophylla as M; and hydrangenol as H. “0” means a control that was treated with vehicle.

[2] = system: C2C12 cells; test: Change in muscle-related protein expression (primary antibodies) upon treatment with hydrangenol or Hydrangea extract; assay type: cell-based; conditions: C2C12 cells differentiated 5 days; Example 1 25 ug/ml or Example 2 2.5 ug/ml; 1 hour or 24 hours; FIG. 9
Method: Each sample obtained in Examples 1 and 2 was analyzed in regards to its effects on the change in protein expression involved in the prevention of muscle diseases, the improvement of muscle functions, and the promotion of motor performance. For this experiment, C2C12 cells were differentiated for 5 days and then treated with the sample of Example 1 (25 ug/ml) or Example 2 (2.5 ug/ml) for 1 hour or 24 hours, respectively. Then, the cell was broken down with a modified LIPA buffer, and 20 ug of each sample was used for analysis. The primary antibodies of p-ERK (9101S: Cell Signaling), p-mTOR (ab109268, Abcam), mTOR (2972, Cell Signaling), p-p70S6K (9234, Cell Signaling), p-AMPK (4186, Cell Signaling), PGC1a (ab54481, Abcam), and ß-actin (A5316, Sigma) were used for the analysis.

[3] = Example 1 25 μg/ml or Example 2 2.5 μg/ml, FIG. 8

SMILES: O=C1OC(c2ccc(O)cc2)Cc2cccc(O)c21 (centres unmarked) [Example 2, 8-hydroxy-3-(4-hydroxyphenyl)-3,4-dihydroisochromen-1-one]
- expression of Myogenin [1, 3]: promoted
- gene (mRNA) expression of PPARα [1, 3]: increase
- gene expression of MyoD [1, 3]: promoted
- gene expression of PGC1α [1, 3]: activate
- gene expression of PPARδ [1, 3]: activate
- gene expression of SIRT1 [1, 3]: increased
- amount of expression for most of genes shown in FIG. 8 ([1]; Example 2 2.5 μg/ml): regulated
- activity of p-AMPK [2]: increased
- phosphorylation of ERK (MAPK) [2]: through the phosphorylation of ERK
- phosphorylation of mTOR [2]: activated
- protein expression of PGC1α [2]: increased
